The text below walks through data of ChEMBL document CHEMBL3804809, “Fatty Acid Transport Proteins: Targeting FATP2 as a Gatekeeper Involved in the Transport of Exogenous Fatty Acids” (Medchemcomm, 2016).

A word on the inhibition in vivo: it is the share of the control response that was lost under treatment. For orientation: IC50 means the concentration needed to halve the response being measured.

Test [1] has as its system Mus musculus. As to the kind of experiment: Inhibition of 3C18-oleate absorption in tyloxapol-treated C57BL/6 mouse plasma at 300 mg/kg administered through gavage for 1 hr followed by 3C18-oleate addition measured after 0.5 to 6 hrs by LC/MS-MS analysis. Format: functional. The note with it: C57BL/6, Plasma, po.
Test [2] has as its target Long-chain fatty acid transport protein 2 (Homo sapiens, UniProt O14975). Nature of the test: Inhibition of FATP2 in human HepG2 cells assessed as decrease in fatty acid transport after 5 mins by trypan blue dye based fluorescence quenching method. The class given is cell-based.
Test [3] deals with Mus musculus. As to the kind of experiment: Upregulation of FATP2 mRNA level in C57BL mouse small intestine at 0.01% administered through diet for 3 days by RT-PCR analysis. Format: functional.
Test [4] relates to Mus musculus. Nature of the test: Downregulation of FATP2 mRNA level in […] null C57BL mouse small intestine at 0.01% administered through diet for 3 days by RT-PCR analysis. The class given is functional.
Test [5] relates to Mus musculus. As to the kind of experiment: Upregulation of FATP2 mRNA level in C57BL mouse small intestine at 0.1% administered through diet for 3 days by RT-PCR analysis. The class given is functional.
Test [6] deals with Mus musculus. Nature of the test: Downregulation of FATP2 mRNA level in […] null C57BL mouse small intestine at 0.1% administered through diet for 3 days by RT-PCR analysis. Format: functional.

Each structure is given as a SMILES string.

Sequence of Long-chain fatty acid transport protein 2 (O14975 whole entry, looked up): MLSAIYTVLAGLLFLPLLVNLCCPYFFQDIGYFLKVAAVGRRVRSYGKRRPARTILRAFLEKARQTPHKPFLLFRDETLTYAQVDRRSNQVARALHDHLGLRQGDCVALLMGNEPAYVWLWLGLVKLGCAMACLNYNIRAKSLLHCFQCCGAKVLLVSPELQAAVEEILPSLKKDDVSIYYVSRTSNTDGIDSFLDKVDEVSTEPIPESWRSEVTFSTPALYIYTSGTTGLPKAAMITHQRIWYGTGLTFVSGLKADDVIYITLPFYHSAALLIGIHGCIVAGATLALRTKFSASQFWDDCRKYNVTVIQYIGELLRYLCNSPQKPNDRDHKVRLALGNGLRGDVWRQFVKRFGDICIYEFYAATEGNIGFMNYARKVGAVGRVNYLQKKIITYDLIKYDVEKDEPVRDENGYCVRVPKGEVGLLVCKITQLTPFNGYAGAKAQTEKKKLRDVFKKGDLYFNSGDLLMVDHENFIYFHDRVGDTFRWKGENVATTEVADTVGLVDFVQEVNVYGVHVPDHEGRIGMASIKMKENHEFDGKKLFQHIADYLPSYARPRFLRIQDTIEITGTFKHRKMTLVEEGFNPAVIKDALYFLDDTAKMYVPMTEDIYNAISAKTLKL

`O=C1Nc2ccc(Br)cc2C12NN=C(c1ccccc1)S2` (configuration not stated) returned an inhibition in vivo at 300 mg/kg in test [1] of 80%. Moreover, the IC50 in test [2] was found to be 6.7 µM. On to `O=c1cc(-c2ccc([N+](=O)[O-])cc2)[nH]c2c(-c3ccc(Cl)cc3)c(Cc3ccccc3)nn12`, for which the IC50 in test [2] is 6.3 µM.

Regarding `CC(C)(Sc1ccc(CCN(CCCCC2CCCCC2)C(=O)NC2CCCCC2)cc1)C(=O)O` [GW7647], the results for the “fold change (FC)” value in test [3] and in test [4] were 4 and 2, respectively. Take `Cc1cccc(Nc2cc(Cl)nc(SCC(=O)O)n2)c1C` [PIRINIXIC ACID]: the “fold change (FC)” value in test [5] came out at 4; in test [6], 2.
